Assay results as given in patent US20090263507A1, “BIOLOGICAL MARKERS AND RESPONSE TO TREATMENT FOR PAIN, INFLAMMATION, NEURONAL OR VASCULAR INJURY AND METHODS OF USE” (Warsaw Orthopedic, Inc., priority 2008, published 2009).

Legend:
stroke = details: intravenous, up to 12 hours following stroke onset, 2589 patients (Muir et al., 2004); cited from earlier work
TBI = details: University of Washington trial initiated in 1999, preliminary data; cited from earlier work
brain injury = assay: Loss of cognitive functions (ability to learn a new spatial task) following brain injury; assay type: in vivo, animals; details: single agent alone
Description: The discovery of a synergistic effect between PEG, a biomembrane sealing agent, and magnesium is highly significant as it can lead to the development of therapeutic formulations with improved efficacy for the treatment of neuronal trauma, inflammatory and painful conditions.

pain = details: Crosby et al., 2000; cited from earlier work

SMILES	clinical improvement after stroke (stroke)	outcome of magnesium sulfate therapy in TBI patients (TBI)	effect on the loss of cognitive functions following brain injury (brain injury)	duration of analgesic effects (pain) [h]
O=S(=O)([O-])[O-].[Mg+2] [magnesium sulfate]	no significant improvement	negative	–	–
[Mg+2] [magnesium]	–	–	no effect	≤ 4
